What all share (type): in vivo, Arabidopsis thaliana
For data set [1], the system named is CaBP22 transcript levels. Briefly: RT-PCR analysis of CaBP22 transcript levels in Col-0 and defense mutants. The protocol: FIG. 4. Analysis of HTC activity in defense mutant plants. A & B. RT-PCR analysis of CaBP22 transcript levels in Col-0 (wild-type) and mutant backgrounds 24 h after spraying 2-week-old seedlings with mock-solution (1% DMSO), 100 μM DCA, or HTC. RT-PCRs with ACTIN are shown as loading controls. […] C. Analysis of HTC activity in Col-0 or nahG background. Experiments were conducted with three-week-old soil-grown Col-0 or nahG seedlings sprayed with 100 μM HTC, 100 μM DCA, or mock-solution (1% DMSO) 24 h prior to infection with 2×10^4 virulent Noco2 spores ml^−1 (2 ml per pot). Spores were counted at 7 dpi. Mean and SE values were calculated from a minimum of three biological replicates and their averages of are shown.
To establish the mode-of-action of HTC, we performed reverse transcription (RT)-PCRs examining transcript levels of the defense marker gene CaBP22 in Col-0 and a set of mutant lines representing various defense signaling mechanisms. […] In the transgenic nahG line, which is compromised in the accumulation of salicylic acid (SA), the ability of HTC to induce CaBP22 expression was blocked, while that of DCA was not affected (FIGS. 4A and B).

The subject of data set [2] is Arabidopsis roots. Description: Root length of Col-0 seedlings on 1/2 MS plates containing synthetic elicitor. The method, then: FIG. 5. Relative root length of Col-0 plants grown on synthetic elicitors. Col-0 seedlings were plated in square petri dishes on ½ MS medium containing 1, 10, 25, 50, 75 or 100 μM of HTC, DCA, INA, or the respective controls (solvent only). A. Roots of Col-0 seedlings grown on 1 uM HTC or control (0.01% DMSO) medium 14 days after germination. B. Average percent Col-0 root length grown on synthetic elicitors compared to Col-0 grown on control. Root length was measured at day 3, 5, 7, 11, and 14. Results are expressed as percentages of the average root length on the respective synthetic elicitor treatments compared to their controls. The average, standard error, and Student's t-test (p<0.05) were calculated from these values. Significant differences between synthetic elicitor-treated and control-treated plants are marked by a star above the corresponding data point. Y-axis represents relative root growth in the presence of synthetic elicitor. CSE: concentration of synthetic elicitor; dpg: days post germination.
We compared the ability of other synthetic elicitors to enhance growth, and performed root growth assays with INA, DCA, and HTC (FIG. 5B). Each synthetic elicitor was added to the solid media plates at concentrations ranging from 1 to 100 μM. The plates were placed upright in a growth chamber, and root lengths were measured at 3 d-intervals. To merge data sets, root length was expressed as a percentage of their value relative to the average of the mock (control) for that data set. Normalizing each root length to its control allowed all replicates to be combined together to calculate averages, standard errors, and perform statistical tests (FIG. 5B).

Data set [3] deals with Col-0 seedlings. Description: Fresh weight of aerial portions of soil-drenched Col-0 seedlings. The settings on record: 1-100 μM soil drench, day 14. The protocol: FIG. 6. Relative weight of aerial portions of synthetic elicitor treated Col-0 seedlings compared to control (DMSO) treated seedlings. Col-0 seeds (15-20 seeds per pot) were sown on soil drenched with 20 mL of the indicated concentrations of HTC, INA, DCA, or the respective mock solutions. Fresh weight (FW) of the above-ground plant tissues was measured at day 14. Results are expressed as percentages of the average FW of the respective synthetic elicitor treated plants compared to that of mock-treated controls. The standard error and Student's t-test (p<0.05) were calculated from at least three biological replicates and averages are shown. Significant differences between synthetic elicitor-treated and control-treated plants are marked by a star above the corresponding data point. Y-axis represents percent of FW in the presence of synthetic elicitor compared to controls.
To determine whether the synthetic […] could increase the aerial weight of Arabidopsis, soil-sown-seedlings were drenched with synthetic elicitor in water at day 0 (FIG. 6). After 14 days, aerial portions of plants were cut off and their fresh weight measured. […] HTC thus has a hormesis-like effect in Arabidopsis roots, but generally increases the aerial fresh weight of Arabidopsis at the concentrations tested.

Entries after “also recorded” stand apart in the source; their conditions may differ.

With `O=C(O)C1CSC(c2cc(Br)ccc2O)N1` (centres unmarked) [HTC, 2-(5-bromo-2-hydroxy-phenyl)-thiazolidine-4-carboxylic acid], the CaBP22 transcript levels result is reported as “induced an increase” in data set [1] (Col-0, 24 h after spraying 100 μM) and “not” in data set [1] (wrky70-3 mutant, 24 h after spraying 100 μM). Besides, the CaBP22 transcript accumulation entry is “reduced” in data set [1] (pad4-1 mutant, 100 μM); “reduced” in data set [1] (sid2-2 mutant, 100 μM); “full HTC-induced CaBP22 transcript accumulation” in data set [1] (wrky72-2 mutant, 100 μM). The “ability to induce CaBP22 expression” value in data set [1] (transgenic nahG line, 100 μM) was “blocked”. Further, in data set [2] (1 μM), the “root length relative to control plates” value is reported as “up to 180%”. Further, the “enhancement of root length / root growth” value in data set [2] (HTC at 1 μM only, DCA and INA at various tested concentrations) is listed as “enhanced the root length”. For the same compound, in data set [2] (concentrations above 50 μM), the “reduction of length of roots” value was around 80%. The “root growth at higher concentrations” value in data set [2] (higher doses, range tested 1 to 100 μM) is “reduced root growth; also recorded: strongly inhibited”. In data set [3], the “fresh weight of shoots relative to mock-treated plants” value was around 120%.

(Values after patent US9420790B2, “Molecules that induce disease resistance and improve growth in plants” (The Regents of the University of California, priority 2013, dated 2016).)
